Data on one cell line can be found in the supplement of paper PMC10307832.

Assay in all cases: relative viability (nuclei count vs DMSO), 5 days (fraction); higher = more cells survive
Compound in the assay “Pazopanib + Palbociclib”: Cc1ccc(Nc2nccc(N(C)c3ccc4c(C)n(C)nc4c3)n2)cc1S(N)(=O)=O [Pazopanib] + CC(=O)c1c(C)c2cnc(Nc3ccc(N4CCNCC4)cn3)nc2n(C2CCCC2)c1=O [Palbociclib] (partner 0.5 µM)
An outline of the steps:
(§1)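 Medians of duplicate plates are given as relative viability. That measure is the nuclei count in treated wells divided by the count in vehicle wells. Counts were taken on 4× images of lung cancer cell lines in 1536-well plates, 5 days after pin-tool dosing the day after seeding with one drug alone or a fixed anchor-drug dose plus five library-drug doses (not always all listed) in √10 steps.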

Compound in the assay “Pazopanib + Dasatinib”: Cc1ccc(Nc2nccc(N(C)c3ccc4c(C)n(C)nc4c3)n2)cc1S(N)(=O)=O [Pazopanib] + Cc1nc(Nc2ncc(C(=O)Nc3c(C)cccc3Cl)s2)cc(N2CCN(CCO)CC2)n1 [Dasatinib] (partner 0.075 µM)
An outline of the steps: as §1

Compound in the assay “Ponatinib + Tozasertib”: Cc1ccc(C(=O)Nc2ccc(CN3CCN(C)CC3)c(C(F)(F)F)c2)cc1C#Cc1cnc2cccnn12 [Ponatinib] + Cc1cc(Nc2cc(N3CCN(C)CC3)nc(Sc3ccc(NC(=O)C4CC4)cc3)n2)n[nH]1 [Tozasertib] (partner 0.1 µM)
A digest of the protocol:
as §1

Compound in the assay “Pazopanib + Olaparib”: Cc1ccc(Nc2nccc(N(C)c3ccc4c(C)n(C)nc4c3)n2)cc1S(N)(=O)=O [Pazopanib] + O=C(c1cc(Cc2n[nH]c(=O)c3ccccc23)ccc1F)N1CCN(C(=O)C2CC2)CC1 [Olaparib] (partner 8 µM)
An outline of the steps:
as §1

UMC-11: the relative viability in the assay with Pazopanib + Palbociclib (first compound 0.01 µM) is 0.305; in the assay with Pazopanib + Palbociclib (first compound 0.03162 µM), 0.347; in the assay with Pazopanib + Palbociclib (first compound 0.1 µM), 0.31; in the assay with Pazopanib + Palbociclib (first compound 0.3162 µM), 0.358; in the assay with Pazopanib + Palbociclib (first compound 1 µM), 0.32; with Pazopanib + Dasatinib (first compound 0.01 µM), 0.455. In addition, the relative viability in the assay with Pazopanib + Dasatinib (first compound 0.03162 µM) amounted to 0.459; with Pazopanib + Dasatinib (first compound 0.1 µM), 0.568; with Pazopanib + Dasatinib (first compound 0.3162 µM), 0.467; with Pazopanib + Dasatinib (first compound 1 µM), 0.432; with Ponatinib + Tozasertib (first compound 0.002 µM), 0.193; with Ponatinib + Tozasertib (first compound 0.006325 µM), 0.223. The relative viability turned out to be 0.209 in the assay with Ponatinib + Tozasertib (first compound 0.06325 µM); 0.217 with Ponatinib + Tozasertib (first compound 0.2 µM); 0.425 with Pazopanib + Olaparib (first compound 0.01 µM); 0.359 with Pazopanib + Olaparib (first compound 0.03162 µM); 0.41 with Pazopanib + Olaparib (first compound 0.1 µM); 0.509 with Pazopanib + Olaparib (first compound 0.3162 µM). For the same cell line, in the assay with Pazopanib + Olaparib (first compound 1 µM), the relative viability came to 0.34.
